# Measurements reported in publication PMC6199309, “A therapeutic approach to pantothenate kinase associated neurodegeneration” (Nature Communications, 2018).
# Tests used:
# Assay in all cases: KINOMEscan
# Type in all cases: binding
# Settings in all cases: read-out: %Ctrl @ 10000nM
# [1] = target: T1, NEK1 (Homo sapiens, UniProt Q96PY6)
# T1 construct: purchased DiscoverX KINOMEscan
# [2] = target: T2, PKN1 (Homo sapiens, UniProt Q16512)
# T2 construct: purchased DiscoverX KINOMEscan
# [3] = target: T3, MAK (Homo sapiens, UniProt P20794)
# T3 construct: purchased DiscoverX KINOMEscan
# [4] = target: T4, CSNK1A1L (Homo sapiens, UniProt Q8N752)
# T4 construct: purchased DiscoverX KINOMEscan
# [5] = target: T5, TXK (Homo sapiens, UniProt P42681)
# T5 construct: DNA label for qPCR (T7 phage fusion or DNA tag); purchased DiscoverX scanMAX; host or cells: E. coli BL21-derived (T7 phage) or HEK-293
# [6] = target: T6, ZAK (Homo sapiens, UniProt Q9NYL2)
# T6 construct: purchased DiscoverX scanMAX; host or cells: E. coli BL21-derived host (T7 phage) or HEK-293
# [7] = target: T7, SIK (Homo sapiens, UniProt P57059)
# T7 construct: purchased DiscoverX KINOMEscan
# [8] = target: T8, ACVR2A (Homo sapiens, UniProt P27037)
# T8 construct: purchased DiscoverX KINOMEscan
# [9] = target: T9, CSF1R (Homo sapiens, UniProt P07333)
# T9 construct: purchased DiscoverX KINOMEscan
# [10] = target: T10, ABL1(F317L)-phosphorylated (Homo sapiens, UniProt P00519, F317L)
# T10 construct: purchased DiscoverX KINOMEscan
# [11] = target: T11, ROS1 (Homo sapiens, UniProt P08922)
# T11 construct: purchased DiscoverX KINOMEscan
# [12] = target: T12, SYK (Homo sapiens, UniProt P43405)
# T12 construct: purchased DiscoverX KINOMEscan
# T7 sequence (P57059 whole entry): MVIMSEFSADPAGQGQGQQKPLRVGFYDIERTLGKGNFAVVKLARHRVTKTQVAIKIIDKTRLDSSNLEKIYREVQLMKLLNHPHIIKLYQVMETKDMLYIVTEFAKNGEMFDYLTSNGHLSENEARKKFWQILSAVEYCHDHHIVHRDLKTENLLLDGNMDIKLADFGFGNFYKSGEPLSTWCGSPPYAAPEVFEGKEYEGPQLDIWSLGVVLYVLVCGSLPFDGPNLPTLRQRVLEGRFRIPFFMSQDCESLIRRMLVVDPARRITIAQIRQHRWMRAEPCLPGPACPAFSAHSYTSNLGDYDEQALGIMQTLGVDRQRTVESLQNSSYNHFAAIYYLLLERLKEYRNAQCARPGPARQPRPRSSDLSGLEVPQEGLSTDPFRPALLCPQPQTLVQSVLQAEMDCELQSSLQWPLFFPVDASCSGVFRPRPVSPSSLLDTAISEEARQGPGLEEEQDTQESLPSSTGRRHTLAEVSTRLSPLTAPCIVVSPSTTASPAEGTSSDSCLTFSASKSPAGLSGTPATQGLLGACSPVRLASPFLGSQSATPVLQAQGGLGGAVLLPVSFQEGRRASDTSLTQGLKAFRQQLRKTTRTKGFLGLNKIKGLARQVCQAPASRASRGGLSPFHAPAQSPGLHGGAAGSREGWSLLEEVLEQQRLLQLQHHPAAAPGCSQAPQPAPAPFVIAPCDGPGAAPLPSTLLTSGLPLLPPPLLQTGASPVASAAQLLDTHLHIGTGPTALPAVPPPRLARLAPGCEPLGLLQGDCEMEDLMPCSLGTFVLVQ
# T5 sequence (P42681 whole entry, the tested form may be a part): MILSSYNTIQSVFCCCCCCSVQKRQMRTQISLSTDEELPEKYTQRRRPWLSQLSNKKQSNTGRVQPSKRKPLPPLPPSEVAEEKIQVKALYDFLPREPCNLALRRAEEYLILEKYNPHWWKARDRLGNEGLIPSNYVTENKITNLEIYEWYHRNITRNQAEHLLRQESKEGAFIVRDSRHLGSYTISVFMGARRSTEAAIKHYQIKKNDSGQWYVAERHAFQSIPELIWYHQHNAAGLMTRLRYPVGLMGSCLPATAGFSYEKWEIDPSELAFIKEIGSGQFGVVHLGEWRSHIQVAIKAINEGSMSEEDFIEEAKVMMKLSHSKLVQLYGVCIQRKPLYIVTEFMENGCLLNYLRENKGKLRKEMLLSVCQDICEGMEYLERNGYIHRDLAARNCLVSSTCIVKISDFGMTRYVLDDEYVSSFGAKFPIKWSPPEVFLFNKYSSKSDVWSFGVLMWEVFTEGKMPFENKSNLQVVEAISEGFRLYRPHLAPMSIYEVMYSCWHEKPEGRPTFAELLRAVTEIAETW
# T11 sequence (P08922 28-2347): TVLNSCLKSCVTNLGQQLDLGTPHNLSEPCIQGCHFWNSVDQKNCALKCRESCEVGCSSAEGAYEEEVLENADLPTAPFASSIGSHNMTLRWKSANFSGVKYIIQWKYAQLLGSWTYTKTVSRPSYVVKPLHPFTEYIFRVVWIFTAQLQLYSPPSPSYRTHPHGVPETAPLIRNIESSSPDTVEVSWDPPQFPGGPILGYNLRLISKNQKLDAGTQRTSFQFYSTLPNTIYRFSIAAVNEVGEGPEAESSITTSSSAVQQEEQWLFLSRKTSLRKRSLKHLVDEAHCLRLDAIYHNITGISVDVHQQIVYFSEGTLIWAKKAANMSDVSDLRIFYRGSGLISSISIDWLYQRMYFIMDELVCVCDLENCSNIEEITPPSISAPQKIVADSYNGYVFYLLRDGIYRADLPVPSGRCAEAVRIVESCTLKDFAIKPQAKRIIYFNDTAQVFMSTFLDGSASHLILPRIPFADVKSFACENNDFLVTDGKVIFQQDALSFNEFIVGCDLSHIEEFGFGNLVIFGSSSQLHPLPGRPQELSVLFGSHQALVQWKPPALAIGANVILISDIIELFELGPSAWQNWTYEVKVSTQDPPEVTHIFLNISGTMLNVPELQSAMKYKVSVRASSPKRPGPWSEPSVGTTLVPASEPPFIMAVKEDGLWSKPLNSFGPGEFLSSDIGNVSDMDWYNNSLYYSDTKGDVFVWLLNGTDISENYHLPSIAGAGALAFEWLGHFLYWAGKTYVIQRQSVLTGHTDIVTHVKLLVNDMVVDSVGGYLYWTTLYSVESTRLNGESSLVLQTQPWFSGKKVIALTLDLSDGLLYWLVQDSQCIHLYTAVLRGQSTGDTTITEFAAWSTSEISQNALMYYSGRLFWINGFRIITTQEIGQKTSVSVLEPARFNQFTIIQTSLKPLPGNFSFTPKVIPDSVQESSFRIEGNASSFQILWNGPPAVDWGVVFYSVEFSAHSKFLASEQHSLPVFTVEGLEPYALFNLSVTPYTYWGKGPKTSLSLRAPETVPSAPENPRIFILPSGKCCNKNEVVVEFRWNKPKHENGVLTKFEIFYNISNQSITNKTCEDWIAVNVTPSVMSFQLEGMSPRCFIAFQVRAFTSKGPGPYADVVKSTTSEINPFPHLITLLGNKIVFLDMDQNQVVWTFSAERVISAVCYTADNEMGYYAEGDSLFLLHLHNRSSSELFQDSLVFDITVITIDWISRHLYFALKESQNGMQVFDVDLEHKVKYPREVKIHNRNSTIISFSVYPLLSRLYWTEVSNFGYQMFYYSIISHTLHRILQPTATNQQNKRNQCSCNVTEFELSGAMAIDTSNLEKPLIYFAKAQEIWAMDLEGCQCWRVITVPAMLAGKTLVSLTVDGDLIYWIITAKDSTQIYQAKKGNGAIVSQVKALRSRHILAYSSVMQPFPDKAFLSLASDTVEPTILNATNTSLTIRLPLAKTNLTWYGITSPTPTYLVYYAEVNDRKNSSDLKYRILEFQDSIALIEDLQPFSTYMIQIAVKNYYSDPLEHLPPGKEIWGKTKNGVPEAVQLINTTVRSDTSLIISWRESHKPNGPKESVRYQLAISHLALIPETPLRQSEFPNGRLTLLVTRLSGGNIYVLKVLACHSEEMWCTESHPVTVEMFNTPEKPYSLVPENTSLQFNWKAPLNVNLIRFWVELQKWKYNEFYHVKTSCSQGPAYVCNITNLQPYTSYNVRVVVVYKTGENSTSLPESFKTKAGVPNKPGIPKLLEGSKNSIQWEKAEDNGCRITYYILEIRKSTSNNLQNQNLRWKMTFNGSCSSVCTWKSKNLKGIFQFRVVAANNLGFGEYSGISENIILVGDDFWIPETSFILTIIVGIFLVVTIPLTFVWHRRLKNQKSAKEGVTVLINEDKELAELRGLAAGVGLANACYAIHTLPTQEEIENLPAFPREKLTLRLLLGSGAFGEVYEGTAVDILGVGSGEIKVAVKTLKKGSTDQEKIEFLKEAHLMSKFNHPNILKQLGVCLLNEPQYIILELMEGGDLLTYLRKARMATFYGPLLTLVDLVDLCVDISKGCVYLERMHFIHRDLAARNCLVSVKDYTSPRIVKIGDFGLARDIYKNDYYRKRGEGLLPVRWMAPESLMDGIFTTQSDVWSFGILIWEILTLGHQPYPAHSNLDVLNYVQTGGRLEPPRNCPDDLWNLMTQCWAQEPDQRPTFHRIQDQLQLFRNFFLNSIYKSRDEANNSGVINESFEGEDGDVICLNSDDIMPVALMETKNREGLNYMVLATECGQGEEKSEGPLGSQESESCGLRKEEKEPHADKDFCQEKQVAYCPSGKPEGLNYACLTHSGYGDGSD
# T1 sequence (Q96PY6 whole entry): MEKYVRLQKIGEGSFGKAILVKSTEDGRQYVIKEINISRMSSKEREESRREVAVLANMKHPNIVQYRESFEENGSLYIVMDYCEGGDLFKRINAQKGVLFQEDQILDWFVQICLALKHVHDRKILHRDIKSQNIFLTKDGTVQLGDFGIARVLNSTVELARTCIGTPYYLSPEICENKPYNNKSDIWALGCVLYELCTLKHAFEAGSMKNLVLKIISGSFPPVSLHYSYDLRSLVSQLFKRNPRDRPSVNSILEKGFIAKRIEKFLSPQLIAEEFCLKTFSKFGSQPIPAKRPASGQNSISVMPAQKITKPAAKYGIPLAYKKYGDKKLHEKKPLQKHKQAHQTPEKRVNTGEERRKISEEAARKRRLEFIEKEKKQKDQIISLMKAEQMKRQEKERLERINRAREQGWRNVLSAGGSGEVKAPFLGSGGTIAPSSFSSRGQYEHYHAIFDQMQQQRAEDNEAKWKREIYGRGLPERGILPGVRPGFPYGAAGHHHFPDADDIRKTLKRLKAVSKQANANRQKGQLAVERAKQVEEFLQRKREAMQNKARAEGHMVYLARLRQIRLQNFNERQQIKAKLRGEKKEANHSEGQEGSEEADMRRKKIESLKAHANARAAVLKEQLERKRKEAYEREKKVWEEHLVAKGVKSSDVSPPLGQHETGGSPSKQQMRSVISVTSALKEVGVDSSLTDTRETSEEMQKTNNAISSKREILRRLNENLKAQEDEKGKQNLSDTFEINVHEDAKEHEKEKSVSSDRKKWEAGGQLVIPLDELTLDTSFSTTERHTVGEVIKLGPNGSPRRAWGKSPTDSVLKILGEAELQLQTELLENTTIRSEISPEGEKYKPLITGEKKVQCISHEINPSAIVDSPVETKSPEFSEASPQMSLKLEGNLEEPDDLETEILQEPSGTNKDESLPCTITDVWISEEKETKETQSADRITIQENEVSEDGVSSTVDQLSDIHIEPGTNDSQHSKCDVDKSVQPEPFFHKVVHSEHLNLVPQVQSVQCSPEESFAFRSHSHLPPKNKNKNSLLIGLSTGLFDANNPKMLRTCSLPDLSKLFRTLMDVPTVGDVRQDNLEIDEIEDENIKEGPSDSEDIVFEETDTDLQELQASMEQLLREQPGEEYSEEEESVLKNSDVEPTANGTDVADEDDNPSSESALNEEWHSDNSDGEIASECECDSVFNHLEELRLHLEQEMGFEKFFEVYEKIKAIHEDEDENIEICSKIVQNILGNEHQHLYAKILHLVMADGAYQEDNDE
smiles,measurement,setting,value
"CC(C)c1ccc(CC(=O)N2CCN(c3ccc(C#N)nn3)CC2)cc1 [PZ-2891, 6-(4-(2-(4-isopropylphenyl)acetyl)piperazin-1-yl)pyridazine-3-carbonitrile]",remaining binding at 10 µM,[1],100%
same,remaining binding at 10 µM,[2],69%
same,remaining binding at 10 µM,[3],69%
same,remaining binding at 10 µM,[4],100%
same,remaining binding at 10 µM,[5],92%
same,remaining binding at 10 µM,[6],88%
same,remaining binding at 10 µM,[7],83%
same,remaining binding at 10 µM,[8],100%
same,remaining binding at 10 µM,[9],91%
same,remaining binding at 10 µM,[10],100%
same,remaining binding at 10 µM,[11],81%
same,remaining binding at 10 µM,[12],82%
